# Measured values reported in patent US9714239B2, “N-phenyl-lactam derivatives capable of stimulating neurogenesis and their use in the treatment of neurological disorders” (Hoffmann-La Roche Inc., priority 2014, dated 2017).
# Tested on: human embryonic stem cell derived neural stem cells (NSCs)
# Test: Neurogenesis assay: neural stem cell proliferation assay
# Conditions: 96 h, compound concentration at which 150% activity of control (100%) is reached, increase in cells based on ATP levels (CellTiterGlo), 4 days incubation, dose response 8 μM to 8 nM
# Procedure: Neural Stem Cell Proliferation Assay
# Neurogenic properties of small molecules are determined based on the proliferation of human embryonic stem cell derived neural stem cells (NSCs) which were derived via a dual smad inhibition as previously described (Chambers, S. M., et al., Highly efficient neural conversion of human ES and iPS cells by dual inhibition of SMAD signaling, Nature biotechnology, 2009 27(3): p. 275-80.).
# Compounds response is measured by the increase in cells based on ATP levels (Promega:CellTiterGlo®) after an incubation period of 4 days. NSCs are thawed and expanded over 3 passages. On the 14th day, NSCs are seeded in Polyornithin/Laminin coated 384 well plates at a cell density of 21,000 cells/cm^2 in a media volume of 38 μl.
# 4 hours after cell seeding, compound solutions are added at a volume of 2 μl. Stock solutions of the compounds (water, 5% DMSO) are diluted to obtain a dose response (11 points, dilution factor is 2), ranging from 8 μM to 8 nM. Controls are run to consistently determine the neurogenic properties of the cells:
# Negative (neutral) control is cell culture Media (final DMSO concentration: 0.25%).
# 1. cell culture Media+100 ng/ml FGF2 (final DMSO concentration: 0.1%)
# 2. cell culture Media+20 ng/ml EGF (final DMSO concentration: 0.1%)
# 3. cell culture Media+100 ng/ml Wnt3a (final DMSO concentration: 0.1%)
# After 4 days incubation at 37° C., 5% CO2, the amount of ATP per well is quantified. The ATP concentration is proportional to the cell number. ATP is quantified by using the Promega CellTiterGlo® kit. The CellTiterGlo® reagents contain a cell lysis buffer, a thermo stable luciferase (UltraGlo™ recombinant luciferase), magnesium and luciferin. Luciferin reacts with ATP producing oxyluciferin, AMP and light. The luminescence signal is proportional to the ATP content.
# The value of negative (neutral) control is determined for each assay plate by taking the average of 16 negative control wells. The neurogenic compound response is calculated for each compound as (compound/Negative Control)*100. The values of EC150 from the dose response curve are determined for each test compound. The EC150 is the compound concentration at which 150% activity of control (100%) is reached.
row,Compound,EC (150% of control)
1,"COc1cc(N2CCC(Cc3ccccc3Cl)C2=O)ccc1-c1cn[nH]c1 (stereo not shown) [Example 37, 3-[(2-Chlorophenyl)methyl]-1-[3-methoxy-4-(1H-pyrazol-4-yl)phenyl]pyrrolidin-2-one]",1.13 µM
2,"COc1cc(N2CCC(c3cccc(Cl)c3)C2=O)ccc1-c1cnco1 (stereo not shown) [Example 38, 3-(3-Chlorophenyl)-1-[3-methoxy-4-(1,3-oxazol-5-yl)phenyl]pyrrolidin-2-one]",1.35 µM
3,"COc1cccc(CN2CCN(c3ccc(-c4cn[nH]c4)cc3OC)C2=O)c1 [Example 39, 1-[(3-Methoxyphenyl)methyl]-3-[2-methoxy-4-(1H-pyrazol-4-yl)phenyl]imidazolidin-2-one]",0.393 µM
4,"COc1cccc(CC2CCN(c3ccc(-c4cn[nH]c4)c(OC)c3)C2=O)c1 (stereo not shown) [Example 40, 3-[(3-Methoxyphenyl)methyl]-1-[3-methoxy-4-(1H-pyrazol-4-yl)phenyl]pyrrolidin-2-one]",0.334 µM
5,"COc1cc(N2CCC(c3ccccc3OC)C2=O)ccc1-c1cnco1 (stereo not shown) [Example 41, 1-[3-Methoxy-4-(1,3-oxazol-5-yl)phenyl]-3-(2-methoxyphenyl)pyrrolidin-2-one]",2.91 µM
6,"COc1ccccc1CN1CCN(c2ccc(-c3cn[nH]c3)c(OC)c2)C1=O [Example 42, 1-[(2-Methoxyphenyl)methyl]-3-[3-methoxy-4-(1H-pyrazol-4-yl)phenyl]imidazolidin-2-one]",0.308 µM
7,"COc1cc(N2CCN(CCc3ccccc3)C2=O)ccc1-c1cn[nH]c1 [Example 43, 1-[3-Methoxy-4-(1H-pyrazol-4-yl)phenyl]-3-(2-phenylethyl)imidazolidin-2-one]",0.309 µM
8,"COc1ccccc1CCN1CCN(c2ccc(-c3cn[nH]c3)c(OC)c2)C1=O [Example 44, 1-[2-(2-Methoxyphenyl)ethyl]-3-[3-methoxy-4-(1H-pyrazol-4-yl)phenyl]imidazolidin-2-one]",1.98 µM
9,"COc1cc(N2CCN(CCc3ccccc3Cl)C2=O)ccc1-c1cn[nH]c1 [Example 45, 1-[2-(2-Chlorophenyl)ethyl]-3-[3-methoxy-4-(1H-pyrazol-4-yl)phenyl]imidazolidin-2-one]",0.136 µM
10,"COc1cccc(CN2CCN(c3ccc(-c4cn[nH]c4)cc3Cl)C2=O)c1 [Example 46, 1-[2-Chloro-4-(1H-pyrazol-4-yl)phenyl]-3-[(3-methoxyphenyl)methyl]imidazolidin-2-one]",1.83 µM
11,"COc1cc(N2CCN(Cc3ccc(F)cc3)C2=O)ccc1-c1cn[nH]c1 [Example 47, 1-[(4-Fluorophenyl)methyl]-3-[3-methoxy-4-(1H-pyrazol-4-yl)phenyl]imidazolidin-2-one]",0.768 µM
12,"COc1cc(N2CCN(Cc3cccnc3)C2=O)ccc1-c1cn[nH]c1 [Example 48, 1-[3-Methoxy-4-(1H-pyrazol-4-yl)phenyl]-3-(3-pyridylmethyl)imidazolidin-2-one]",0.119 µM
13,"COc1cc(N2CCN(CCc3cccc(Cl)c3)C2=O)ccc1-c1cn[nH]c1 [Example 49, 1-[2-(3-Chlorophenyl)ethyl]-3-[3-methoxy-4-(1H-pyrazol-4-yl)phenyl]imidazolidin-2-one]",1.73 µM
14,"COc1cc(N2CCN(CCc3ccc(Cl)cc3)C2=O)ccc1-c1cn[nH]c1 [Example 50, 1-[2-(4-Chlorophenyl)ethyl]-3-[3-methoxy-4-(1H-pyrazol-4-yl)phenyl]imidazolidin-2-one]",2.01 µM
15,"CCC(c1ccccc1)N1CCN(c2ccc(-c3cn[nH]c3)c(OC)c2)C1=O (stereo not shown) [Example 51, 1-[3-Methoxy-4-(1H-pyrazol-4-yl)phenyl]-3-(1-phenylpropyl)imidazolidin-2-one]",0.594 µM
16,"COc1cccc(C2CCN(c3ccc(-c4cnco4)cc3)C2=O)c1 (stereo not shown) [Example 52, 3-(3-Methoxyphenyl)-1-[4-(1,3-oxazol-5-yl)phenyl]pyrrolidin-2-one]",0.517 µM

row,Compound,EC (150% of control)
1,"O=C1C(c2ccccc2)CCN1c1ccc(-c2cnco2)cc1 (stereo not shown) [Example 53, 1-[4-(1,3-Oxazol-5-yl)phenyl]-3-phenylpyrrolidin-2-one]",2.21 µM
2,"COc1cc(N2CCN(Cc3ccccc3C(F)(F)F)C2=O)ccc1-c1ccncc1 [Example 54, 1-[3-Methoxy-4-(4-pyridyl)phenyl]-3-[[2-(trifluoromethyl)phenyl]methyl]imidazolidin-2-one]",0.0351 µM
3,"COc1cc(N2CCN(Cc3ccncc3)C2=O)ccc1-c1ccncc1 [Example 55, 1-[3-Methoxy-4-(4-pyridyl)phenyl]-3-(4-pyridylmethyl)imidazolidin-2-one]",0.377 µM
4,"COc1cc(N2CCC(c3cccc(C(F)(F)F)c3)C2=O)ccc1-c1cnco1 (stereo not shown) [Example 56, 1-[3-Methoxy-4-(1,3-oxazol-5-yl)phenyl]-3-[3-(trifluoromethyl)phenyl]pyrrolidin-2-one]",1.86 µM
5,"O=C1C(c2ccccc2F)CCN1c1ccc(-c2cnco2)cc1 (stereo not shown) [Example 57, 3-(2-Fluorophenyl)-1-[4-(1,3-oxazol-5-yl)phenyl]pyrrolidin-2-one]",0.525 µM
6,"COc1cc(N2CCC(c3ccccc3F)C2=O)ccc1-c1cnco1 (stereo not shown) [Example 58, 3-(2-Fluorophenyl)-1-[3-methoxy-4-(1,3-oxazol-5-yl)phenyl]pyrrolidin-2-one]",0.23 µM
7,"COc1cccc(CN2CCN(c3ccc(-c4cnco4)cc3)C2=O)c1 [Example 59, 1-[(3-Methoxyphenyl)methyl]-3-[4-(1,3-oxazol-5-yl)phenyl]imidazolidin-2-one]",0.122 µM
8,"O=C1C(c2cccc(F)c2)CCN1c1ccc(-c2cnco2)cc1 (stereo not shown) [Example 60, 3-(3-Fluorophenyl)-1-[4-(1,3-oxazol-5-yl)phenyl]pyrrolidin-2-one]",0.605 µM
9,"COc1cc(N2CCC(c3cccc(F)c3)C2=O)ccc1-c1cnco1 (stereo not shown) [Example 61, 3-(3-Fluorophenyl)-1-[3-methoxy-4-(1,3-oxazol-5-yl)phenyl]pyrrolidin-2-one]",0.262 µM
10,"COc1cc(N2CCN(Cc3ccncc3)C2=O)ccc1-c1cn[nH]c1 [Example 62, 1-[3-Methoxy-4-(1H-pyrazol-4-yl)phenyl]-3-(4-pyridylmethyl)imidazolidin-2-one]",0.042 µM
11,"COc1cc(N2CCN(Cc3ccccn3)C2=O)ccc1-c1cn[nH]c1 [Example 63, 1-[3-Methoxy-4-(1H-pyrazol-4-yl)phenyl]-3-(2-pyridylmethyl)imidazolidin-2-one]",0.255 µM
12,"COc1cc(N2CCN(CC(C)c3ccccc3)C2=O)ccc1-c1cn[nH]c1 (stereo not shown) [Example 64, 1-[3-Methoxy-4-(1H-pyrazol-4-yl)phenyl]-3-(2-phenylpropyl)imidazolidin-2-one]",0.387 µM
13,"COc1cc(N2CCN(Cc3cccc(C)c3)C2=O)ccc1-c1ccncc1 [Example 65, 1-[3-Methoxy-4-(4-pyridyl)phenyl]-3-(m-tolylmethyl)imidazolidin-2-one]",0.0298 µM
14,"COc1cc(N2CCN(Cc3cccnc3)C2=O)ccc1-c1ccncc1 [Example 66, 1-[3-Methoxy-4-(4-pyridyl)phenyl]-3-(3-pyridylmethyl)imidazolidin-2-one]",0.4 µM
15,"COc1ccccc1CN1CCN(c2ccc(-c3cnco3)c(OC)c2)C1=O [Example 67, 1-[3-Methoxy-4-(1,3-oxazol-5-yl)phenyl]-3-[(2-methoxyphenyl)methyl]imidazolidin-2-one]",0.702 µM
